Measured values reported in US8895032B2, “Dendritic nano-antioxidants” (Central Michigan University, priority 2009, dated 2014).

System: pBR 322 DNA with Cu2+
Test: Pro-oxidant effect: oxidation of DNA with copper (II) ion
Details: 10 μM Cu2+, 37° C., 1 h
Description: The pro-oxidant effect of compounds 1, 2, and 3 was examined by oxidation of DNA with copper (II) ion. pBR 322 was incubated with 10 μM Cu^2+ at 37° C. for 1 h in the presence of compound 1, 2, or 3 (final concentrations between 0.35 and 45 μM). […] Lane 1 is native DNA, and lanes 2-10 are Cu^2+-oxidized DNA with 0, 45, 23, 11, 5, 3, 1.5, 0.7, and 0.35 μM antioxidant, respectively.
This was performed by co-incubation of DNA (pBR 322), copper (II) ion and antioxidant. […] This ultimately forms DNA-Cu(I)OOH, initiating a free radical cascade by which DNA damage occurs. pBR 322 was incubated with 10 μM Cu^2+ in the presence of antioxidants (0-45 μM) at 37° C. for 1 h and subjected to agarose electrophoresis. […] In FIG. 32, lane 1 is native DNA, and lanes 2-10 are Cu^2+ oxidized DNA with 0, 45, 23, 11, 5, 3, 1.5, 0.7, and 0.35 μM antioxidant, respectively. […] However, it should be noted that physiological concentrations of copper are less than 10-20 μM in plasma and approximately […] for the cation in cells.

## Cc1c(C)c2c(c(C)c1O)CCC(C)(C(=O)O)O2 (centres unmarked) [Trolox, 6-hydroxy-2,5,7,8-tetramethylchroman-2-carboxylic acid]
0.35-45 μM antioxidant
  pro-oxidant effect on DNA at the concentrations tested: strong pro-oxidant effect equivalent to quercetin
11-45 μM antioxidant
  pro-oxidant DNA damage: DNA damage was clearly observed
